Test results from ChEMBL document CHEMBL4118122, “Identification and biological evaluation of thiazole-based inverse agonists of RORγt” (Bioorg Med Chem Lett, 2018).

What was measured:
[1] = target: Adenosine receptor A3 (Homo sapiens) (UniProt P0DMS8); experiment: Displacement of [125I]AB-MECA from human recombinant adenosine A3 receptor at 10 uM after 120 mins by scintillation counting analysis relative to control
[2] = target: T1, Nuclear receptor ROR-beta (Homo sapiens, UniProt Q92753); experiment: Binding affinity to recombinant human RORbeta LBD (201 to 452 residues) expressed in Escherichia coli BL21 (DE3) GOLD by 1,8-ANS dye-based thermofluor assay
T1 sequence (Q92753 whole entry): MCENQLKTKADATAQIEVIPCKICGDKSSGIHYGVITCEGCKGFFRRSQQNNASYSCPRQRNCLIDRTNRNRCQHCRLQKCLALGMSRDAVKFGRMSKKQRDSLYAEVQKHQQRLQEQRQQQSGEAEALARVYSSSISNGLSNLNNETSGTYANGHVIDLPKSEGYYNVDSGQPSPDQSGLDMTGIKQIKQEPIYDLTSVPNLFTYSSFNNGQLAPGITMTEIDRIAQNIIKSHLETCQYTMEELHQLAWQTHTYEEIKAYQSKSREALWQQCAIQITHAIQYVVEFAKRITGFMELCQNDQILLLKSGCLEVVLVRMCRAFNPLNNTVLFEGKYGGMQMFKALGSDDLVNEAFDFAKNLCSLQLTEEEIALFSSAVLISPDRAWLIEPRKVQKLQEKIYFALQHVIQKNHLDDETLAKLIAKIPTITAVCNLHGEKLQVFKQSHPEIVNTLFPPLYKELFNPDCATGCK

Chain of Adenosine receptor A3 (Homo sapiens) (P0DMS8 whole entry, the tested form may be a part): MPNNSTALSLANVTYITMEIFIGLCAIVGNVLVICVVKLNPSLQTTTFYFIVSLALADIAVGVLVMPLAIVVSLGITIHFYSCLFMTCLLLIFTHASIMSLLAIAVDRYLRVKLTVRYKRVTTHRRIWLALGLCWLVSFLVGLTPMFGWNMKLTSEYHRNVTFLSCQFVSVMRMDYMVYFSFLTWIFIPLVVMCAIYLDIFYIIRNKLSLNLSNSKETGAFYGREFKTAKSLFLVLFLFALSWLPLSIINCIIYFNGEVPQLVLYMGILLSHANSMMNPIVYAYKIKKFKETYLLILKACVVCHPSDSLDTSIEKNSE

**Q.** `CC(C)(C)NS(=O)(=O)c1ccc(-c2sc(C(=O)N[C@H]3C[C@H](C(=O)O)C3)nc2CC2CCCCC2)c2ccccc12` was tested. Which inhibition [1] did it give?
**A.** Its inhibition is 81%.

**Q.** What about the Kd [2] of the same compound?
**A.** Its Kd is 740 nM.
